Measured values published in patent US20230373934A1, “ANDROGEN RECEPTOR MODULATORS AND METHODS FOR THEIR USE” (ESSA Pharma, Inc., priority 2022, published 2023).
Blank lines part the entries; values can stand above or below the molecule they belong to.

Molecular target: T1, androgen receptor (AR) (Homo sapiens, UniProt P10275, T878A)
T1 construct: endogenous in cells; host or cells: LNCaP
T1 sequence (P10275 1-920 T878A): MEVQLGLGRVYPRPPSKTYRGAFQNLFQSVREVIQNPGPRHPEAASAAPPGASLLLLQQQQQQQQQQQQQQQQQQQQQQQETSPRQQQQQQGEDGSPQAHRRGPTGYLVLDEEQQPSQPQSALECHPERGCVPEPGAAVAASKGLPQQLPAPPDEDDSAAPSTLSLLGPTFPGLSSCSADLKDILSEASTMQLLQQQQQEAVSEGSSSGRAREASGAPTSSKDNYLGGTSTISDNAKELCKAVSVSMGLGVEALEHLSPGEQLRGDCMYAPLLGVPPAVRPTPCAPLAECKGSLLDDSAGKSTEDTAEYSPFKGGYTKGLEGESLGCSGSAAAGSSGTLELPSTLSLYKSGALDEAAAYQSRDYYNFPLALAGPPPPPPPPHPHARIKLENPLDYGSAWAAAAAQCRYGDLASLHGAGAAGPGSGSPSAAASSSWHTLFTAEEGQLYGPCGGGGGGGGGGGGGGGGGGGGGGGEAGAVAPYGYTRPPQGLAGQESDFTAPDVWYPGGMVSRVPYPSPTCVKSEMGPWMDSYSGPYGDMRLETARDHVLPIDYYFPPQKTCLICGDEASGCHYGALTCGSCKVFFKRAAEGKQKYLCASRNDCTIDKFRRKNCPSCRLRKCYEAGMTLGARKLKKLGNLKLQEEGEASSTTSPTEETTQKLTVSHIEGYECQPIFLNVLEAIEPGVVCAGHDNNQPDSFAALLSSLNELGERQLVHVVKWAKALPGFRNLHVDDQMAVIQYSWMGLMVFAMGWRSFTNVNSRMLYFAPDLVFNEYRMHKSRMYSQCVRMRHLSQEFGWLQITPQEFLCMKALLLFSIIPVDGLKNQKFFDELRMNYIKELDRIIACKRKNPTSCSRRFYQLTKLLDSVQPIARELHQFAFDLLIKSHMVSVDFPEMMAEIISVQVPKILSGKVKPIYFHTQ
Experiment: Androgen-induced PSA-luciferase assay, Luciferase Assay A (LNCaP transiently transfected with PSA (6.1 kb)-luciferase reporter)
Assay type: cell-based
Details: LNCaP cells, 1 h pretreatment, R1881 (1 nM) 24 h, read-out: PSA-Luc IC50 Range
Method: The PSA (6.1 kb)-luciferase reporter contains functional AREs (androgen response elements) to which AR binds in response to androgen to induce luciferase activity. LNCaP cells were transiently transfected with the PSA (6.1 kb)-luciferase reporter for 24 h, and then pretreated with vehicle (DMSO) or indicated concentration of representative compounds for one hour prior to the addition of synthetic androgen, R1881 (1 nM). After 24 h of incubation with R1881, the cells were harvested, and relative luciferase activities were determined (FIG. 1). To determine the IC50, treatments were normalized to vehicle control activity induced by R1881 (Table 2).
Luciferase Assay A: Cells were lysed using Passive Lysis Buffer (Promega) and then collected into V-bottom 96-well tissue culture plates. Lysates were centrifuged at 4° C. for 5 minutes at 3000 rpm. To measure luminescence of LNCaP cell lysates the Firefly Luciferase Assay System (Promega) was employed, according to manufacturer's protocol. Relative luminescence units (RLU) in cell lysates were detected for 10 seconds using Promega GloMax-Multi Detection Luminometer (Promega). Values were normalized to protein content. GraphPad Prism graphing software was used to calculate IC50 values. Luciferase Assay A was run for all compounds in Table 2 unless otherwise noted below.
Statistical analyses were performed using GraphPad Prism (Version 6.01 for Windows; La Jolla, CA, USA). Comparisons between treatment and control groups were compared using Two-Way ANOVA with post-hoc Dunnett's and Tukey's tests. Differences were considered statistically significant at P values less than 0.05.

SMILES: CC(C)(c1ccc(OCC2CC3(C2)CN(S(C)(=O)=O)C3)cc1)c1cc(Cl)c(OCCCl)c(C#N)c1 [Compound A71]
IC50: 500 to 2000 nM

SMILES: CC(C)(c1ccc(-c2cnc(NC3CN(S(C)(=O)=O)C3)nc2)cc1)c1cc(Cl)c(OCCCl)c(C#N)c1 [Compound A76]
IC50: 500 to 2000 nM

SMILES: CC(C)(c1ccc(-c2cn([C@H]3C[C@H](NS(C)(=O)=O)C3)nn2)cc1)c1cc(Cl)c(OCCCl)c(C#N)c1 [Compound A77]
IC50: > 2000 nM

SMILES: CS(=O)(=O)N[C@H]1C[C@H](n2cc(-c3ccc(Oc4cc(Cl)c(OCCCl)c(C#N)c4)cc3)cn2)C1 [Compound A79]
IC50: > 2000 nM

SMILES: CC(C)(c1ccc(Oc2ccnc(CNS(C)(=O)=O)n2)cc1)c1cc(Cl)c(OCCCl)c(C#N)c1 [Compound A85]
IC50: 500 to 2000 nM

SMILES: CC(C)(c1ccc(Oc2ccnc(N3CC(NS(C)(=O)=O)C3)n2)cc1)c1cc(Cl)c(OCCCl)c(C#N)c1 [Compound A87]
IC50: 500 to 2000 nM

SMILES: CS(=O)(=O)Nc1cnc2cc(N3CCC(Oc4cc(Cl)c(OCCCl)c(C#N)c4)CC3)ccc2n1 [Compound A88]
IC50: > 2000 nM

SMILES: CS(=O)(=O)NCC1CN(c2ncc(-c3ccc(Oc4cc(Cl)c(OCCCl)c(C#N)c4)cc3)cn2)C1 [Compound A96]
IC50: < 500 nM

SMILES: CC(C)(c1ccc(OCc2ccnc(NS(=O)(=O)c3cccs3)n2)cc1)c1cc(Cl)c(OCCCl)c(C#N)c1 [Compound A100]
IC50: 500 to 2000 nM

SMILES: CC(C)(c1ccc(OCc2ccnc(NS(=O)(=O)c3ccsc3)n2)cc1)c1cc(Cl)c(OCCCl)c(C#N)c1 [Compound A101]
IC50: 500 to 2000 nM

SMILES: C=COc1c(Cl)cc(C(C)(C)c2ccc(COc3ccnc(NS(C)(=O)=O)n3)cc2)cc1C#N [Compound A102]
IC50: > 2000 nM

SMILES: CC(C)(c1ccc(OCc2ccnc(NS(=O)(=O)c3ccoc3)n2)cc1)c1cc(Cl)c(OCCCl)c(C#N)c1 [Compound A103]
IC50: 500 to 2000 nM

SMILES: CC(C)(c1ccc(OCc2ccnc(-n3cc(S(N)(=O)=O)cn3)n2)cc1)c1cc(Cl)c(OCCCl)c(C#N)c1 [Compound A104]
IC50: > 2000 nM

SMILES: Cn1ccc(S(=O)(=O)Nc2nccc(COc3ccc(C(C)(C)c4cc(Cl)c(OCCCl)c(C#N)c4)cc3)n2)n1 [Compound A105]
IC50: 500 to 2000 nM

SMILES: CC(C)(c1ccc(OCc2ccnc(-n3cnc(S(N)(=O)=O)c3)n2)cc1)c1cc(Cl)c(OCCCl)c(C#N)c1 [Compound A106]
IC50: 500 to 2000 nM

SMILES: Cn1cnc(S(=O)(=O)Nc2nccc(COc3ccc(C(C)(C)c4cc(Cl)c(OCCCl)c(C#N)c4)cc3)n2)c1 [Compound A107]
IC50: > 2000 nM

SMILES: CC(C)(c1ccc(OCc2ccnc(-n3cnc(S(N)(=O)=O)n3)n2)cc1)c1cc(Cl)c(OCCCl)c(C#N)c1 [Compound A108]
IC50: 500 to 2000 nM

SMILES: CC(C)(C)OC(=O)N1CCN(Cc2cc(C(C)(C)c3cc(Cl)c(OCCCl)c(C#N)c3)ccc2OCc2ccnc(NS(C)(=O)=O)n2)CC1 [Compound A112]
IC50: 500 to 2000 nM

SMILES: CC(C)(c1cc(Cl)c(OCCCl)c(C#N)c1)c1ccc(OCc2ccnc(NS(C)(=O)=O)n2)c(CN2CCNCC2)c1 [Compound A113]
IC50: > 2000 nM

SMILES: CC(C)(C)OC(=O)N1CCC(c2cc(COc3ccc(C(C)(C)c4cc(Cl)c(OCCCl)c(C#N)c4)cc3)nc(NS(C)(=O)=O)n2)CC1 [Compound A115]
IC50: 500 to 2000 nM

SMILES: CC(C)(c1ccc(OCc2cnc(NS(C)(=O)=O)nc2N)cc1)c1cc(Cl)c(OCCCl)c(C#N)c1 [Compound A118, N-(4-amino-5-((4-(2-(3-chloro-4-(2-chloroethoxy)-5-cyanophenyl)propan-2-yl)phenoxy)methyl)pyrimidin-2-yl)methanesulfonamide]
IC50: < 500 nM

SMILES: CC(C)(c1cc(Cl)c(OCCCl)c(C#N)c1)c1ccc(OCc2ccnc(NS(C)(=O)=O)n2)c(CO)c1 [Compound A119]
IC50: > 2000 nM

SMILES: CS(=O)(=O)N1CCc2cc(-c3ccc(Oc4cc(Cl)c(OCCCl)c(C#N)c4)cc3)ccc2C1 [Compound A120]
IC50: > 2000 nM

SMILES: CS(=O)(=O)Nc1nccc(COc2ccc(Oc3cc(Cl)c(OCCCl)c(C#N)c3)cc2)n1 [Compound A122]
IC50: > 2000 nM

SMILES: CC(C)(c1ccc(OCc2ccc(F)c(NS(C)(=O)=O)n2)cc1)c1cc(Cl)c(OCCCl)c(C#N)c1 [Compound A125]
IC50: 500 to 2000 nM

SMILES: CC(C)(c1ccc(OCc2ccnc(NS(C)(=O)=O)n2)cc1)c1cc(Cl)c(N2CC3CC(C2)O3)c(C#N)c1 [Compound A126]
IC50: > 2000 nM

SMILES: CC(C)(c1ccc(OCc2ccnc(NS(C)(=O)=O)n2)cc1)c1cc(Cl)c(CCO)c(C#N)c1 [Compound A129]
IC50: > 2000 nM

SMILES: CC(C)(c1ccc(OCc2cccc(NS(C)(=O)=O)c2F)cc1)c1cc(Cl)c(OCCCl)c(C#N)c1 [Compound A130]
IC50: 500 to 2000 nM

SMILES: CC(C)(c1ccc(OCc2ccc(F)c(NS(C)(=O)=O)c2)cc1)c1cc(Cl)c(OCCCl)c(C#N)c1 [Compound A131]
IC50: 500 to 2000 nM

SMILES: CC(C)(c1ccc(OCc2ccnc(NS(C)(=O)=O)n2)cc1)c1cc(Cl)c(N2CCC(F)(F)CC2)c(C#N)c1 [Compound A132]
IC50: > 2000 nM

SMILES: CC(C)(c1ccc(OCc2ccnc(NS(C)(=O)=O)n2)cc1)c1cc(Cl)c(N2CCC3(CC2)CC3)c(C#N)c1 [Compound A133]
IC50: > 2000 nM

SMILES: CC(C)(c1ccc(OCc2ccnc(NS(C)(=O)=O)n2)cc1)c1cc(Cl)c(N2CCN(CC(F)(F)F)CC2)c(C#N)c1 [Compound A134]
IC50: 500 to 2000 nM

More lines, now with the values ahead:

IC50: 500 to 2000 nM
SMILES: CC(C)(c1ccc(-c2ccc(N3CC(NS(C)(=O)=O)C3)nn2)cc1)c1cc(Cl)c(OCCCl)c(C#N)c1 [Compound A69]

IC50: > 2000 nM
SMILES: CS(=O)(=O)NC1CN(c2ncc(-c3ccc(Oc4cc(Cl)c(OCCCl)c(C#N)c4)cc3)cn2)C1 [Compound A70]

IC50: 500 to 2000 nM
SMILES: CC(C)(c1ccc(OC[C@H]2C[C@@H](CNS(C)(=O)=O)C2)cc1)c1cc(Cl)c(OCCCl)c(C#N)c1 [Compound A74]

IC50: 500 to 2000 nM
SMILES: CC(C)(c1ccc(Oc2cnc(CNS(C)(=O)=O)nc2)cc1)c1cc(Cl)c(OCCCl)c(C#N)c1 [Compound A86]

IC50: > 2000 nM
SMILES: CS(=O)(=O)Nc1cnc2cc(C3CCN(Cc4cc(Cl)c(OCCCl)c(C#N)c4)CC3)ccc2n1 [Compound A93]

IC50: 500 to 2000 nM
SMILES: CC(C)(c1ccc(-c2cnc(N3CC(CNS(C)(=O)=O)C3)nc2)cc1)c1cc(Cl)c(OCCCl)c(C#N)c1 [Compound A95]

IC50: 500 to 2000 nM
SMILES: CS(=O)(=O)NC12CC(n3cc(-c4ccc(Oc5cc(Cl)c(OCCCl)c(C#N)c5)cc4)cn3)(C1)C2 [Compound A99]

IC50: > 2000 nM
SMILES: CC(C)(c1ccc(OCc2ccnc(NS(=O)(=O)c3cccnc3)n2)cc1)c1cc(Cl)c(OCCCl)c(C#N)c1 [Compound A109]

IC50: 500 to 2000 nM
SMILES: CC(C)(c1ccc(OCc2ccnc(NS(=O)(=O)c3ccccn3)n2)cc1)c1cc(Cl)c(OCCCl)c(C#N)c1 [Compound A110]

IC50: > 2000 nM
SMILES: CC(C)(c1cc(Cl)c(OCCCl)c(C#N)c1)c1ccc(OCc2ccnc(NS(C)(=O)=O)n2)c(CN)c1 [Compound A111]

IC50: > 2000 nM
SMILES: CC(C)(c1ccc(OCc2cc(C3CCNCC3)nc(NS(C)(=O)=O)n2)cc1)c1cc(Cl)c(OCCCl)c(C#N)c1 [Compound A114]

IC50: > 2000 nM
SMILES: CC(C)(c1ccc(OCc2cc(N3CCNCC3)nc(NS(C)(=O)=O)n2)cc1)c1cc(Cl)c(OCCCl)c(C#N)c1 [Compound A116]

IC50: > 2000 nM
SMILES: CC(C)(C)OC(=O)N1CCN(c2cc(COc3ccc(C(C)(C)c4cc(Cl)c(OCCCl)c(C#N)c4)cc3)nc(NS(C)(=O)=O)n2)CC1 [Compound A117]

IC50: 500 to 2000 nM
SMILES: CC(C)(c1ccc(OCc2ccnc(NS(C)(=O)=O)n2)cc1)c1cc(Cl)c(OC2CC(F)(F)C2)c(C#N)c1 [Compound A121]

IC50: > 2000 nM
SMILES: CS(=O)(=O)Nc1cnc2cc(-c3ncc(Oc4cc(Cl)c(OCCCl)c(C#N)c4)cn3)ccc2n1 [Compound A123]

IC50: 500 to 2000 nM
SMILES: CC(C)(c1ccc(-c2cnc3cc(NS(C)(=O)=O)ccc3n2)cc1)c1cc(Cl)c(OCCCl)c(C#N)c1 [Compound A124]

IC50: > 2000 nM
SMILES: CS(=O)(=O)Nc1nccc(COc2ccc(C(=O)c3cc(Cl)c(OCCCl)c(C#N)c3)cc2)n1 [Compound A128]
